Tested on: NCI-H1373 lung cancer xenograft
Test: Inhibition of tumor growth by oral dosing, human NCI-H1373 lung cancer xenograft
Format: in vivo
Settings: NCI-H1373 xenograft in SCID mice
Description: Example H: Inhibition of Tumor Growth by Oral Dosing with a PARP7 Inhibitor
The effect of Compound 561 on tumor growth was studied in a human NCI-H1373 lung cancer xenograft and a murine CT26 colon cancer syngeneic model.
For the NCI-H1373 study, SCID mice were inoculated subcutaneously in the right flank with NCI-H1373 cells for tumor development. After 5 days of tumor growth, mice with 89-148 mm^3 tumors were randomized into treatment groups with mean tumor volumes of 121 mm^3. The treatments were started from the next day post randomization (defined randomization day as day 0) and were treated with vehicle (50% Labrasol) or Compound 561 (62.5, 125, 250, and 500 mg/kg) once a day for 28 days by oral gavage. Tumor volumes were determined by manual calipers every 2-3 days. Mean tumor volume and SEM are plotted. QD: once a day; PO: per oral administration. Statistical significance is calculated using two-way ANOVA followed by Bonferroni post-tests in which the treatment groups were compared to vehicle control (**** P<0.0001).

C[C@@H](COCCC(=O)N1CCN(c2ncc(C(F)(F)F)cn2)CC1)Nc1cn[nH]c(=O)c1C(F)(F)F [Example 561, 5-[[(2S)-1-(3-oxo-3-[4-[5-(trifluoromethyl)pyrimidin-2-yl]piperazin-1-yl]propoxy)propan-2-yl]amino]-4-(trifluoromethyl)-2,3-dihydropyridazin-3-one]
tumor growth (62.5, 125, 250 and 500 mg/kg once a day for 28 days by oral gavage, vs vehicle, P<0.0001 (FIG. 7A)): significantly reduces tumor growth
tumor regression (62.5 to 500 mg/kg once a day for 28 days, all dose levels): complete tumor regression

From US10550105B2 (Ribon Therapeutics Inc., priority 2018, dated 2020)
